Measurements published in patent publication US20030162777A1, “Novel N-acylated heterocycles” (Recordati S.A., priority 2001, published 2003).

biological target: T1, human 5HT1A-serotonergic receptor (Homo sapiens, UniProt P08908); assay: Radioligand binding to recombinant 5-HT1A receptors; details: [3H]8-OH-DPAT 1 nM, membranes of HeLa cells with human 5-HT1A receptor; Ki from IC50 by Cheng & Prusoff; read-out: Binding affinity for 5HT1A receptors, Ki
T1 construct: expressed in transfected cells; host or cells: HeLa (human cell line), stably transfected; cell membranes used
T1 sequence (P08908 1-422): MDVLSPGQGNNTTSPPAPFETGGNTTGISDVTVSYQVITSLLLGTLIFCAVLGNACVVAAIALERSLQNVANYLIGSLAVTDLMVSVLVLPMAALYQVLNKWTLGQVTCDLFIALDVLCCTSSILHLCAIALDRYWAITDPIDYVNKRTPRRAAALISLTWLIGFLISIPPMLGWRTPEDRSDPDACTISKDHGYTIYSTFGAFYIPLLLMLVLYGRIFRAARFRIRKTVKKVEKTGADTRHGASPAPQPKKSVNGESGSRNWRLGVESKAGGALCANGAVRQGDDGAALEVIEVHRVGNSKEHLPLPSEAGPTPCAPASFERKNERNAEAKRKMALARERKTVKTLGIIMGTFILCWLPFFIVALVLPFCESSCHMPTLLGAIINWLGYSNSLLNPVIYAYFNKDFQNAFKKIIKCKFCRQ
In short: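 Displacement of 1 nM [3H]8-OH-DPAT (30 min, 30 °C, Tris-HCl pH 7.4 with MgCl2 and pargyline) from recombinant human 5-HT1A in transfected HeLa membranes, stopped by filtration. Specific binding defined against 10 μM 5-HT; IC50 by nonlinear fitting, then Ki by Cheng–Prusoff.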

SMILES | Ki [nM]
O=C(C1CCCCC1)N1c2ccccc2CCC1CN1CCN(c2c(Cl)cncc2Cl)CC1 (stereo not drawn) [Example 72A66, 1-(1-Cyclohexanecarbonyl-1,2,3,4-tetrahydroquinolin-2-ylmethyl)-4-(3,5-dichloropyridin-4-yl)piperazine] | 10.2
CN(CCOc1cccc2cccnc12)CC1CCc2ccccc2N1C(=O)C1CCCCC1 (stereo not drawn) [Example 72A87, N-(1-Cyclohexanecarbonyl-1,2,3,4-tetrahydroquinolin-2-ylmethyl)-2-(8-quinolyloxy)ethylmethylamine] | 3.9
O=C(C1CCCCC1)N1c2ccccc2CCC1CN1CCN(c2ccccn2)CC1 (stereo not drawn) [Example 72A93, 1-(1-Cyclohexanecarbonyl-1,2,3,4-tetrahydroquinolin-2-ylmethyl)-4-(2-pyridyl)piperazine] | 7.8
O=C(C1CCCCC1)N1c2ccccc2CCC1CN1CCN(c2ccnc3ccccc23)CC1 (stereo not drawn) [Example 72A94, 1-(1-Cyclohexanecarbonyl-1,2,3,4-tetrahydroquinolin-2-ylmethyl)-4-(4-quinolyl)piperazine] | 10
COc1cc(F)ccc1N1CCN(CC2CCc3cc(C)ccc3N2C(=O)C2CCCCCC2)CC1 (stereo not drawn) [Example 73A13, 1-(1-Cycloheptanecarbonyl-1,2,3,4-tetrahydroquinolin-6-methyl-2-ylmethyl)-4-(4-fluoro-2-methoxyphenyl)piperazine] | 8.1
COc1cc(F)ccc1N1CCN(CC2CCc3ccccc3N2C(=O)Cc2cccs2)CC1 (stereo not drawn) [Example 74A8, 1-(4-Fluoro-2-methoxyphenyl)-4-[1-(2-thienylacetyl)-1,2,3,4-tetrahydroquinolin-2-ylmethyl]piperazine] | 5.9
COc1cc(F)ccc1N1CCN(CC2CCc3ccccc3N2C(=O)Cc2ccsc2)CC1 (stereo not drawn) [Example 74A9, 1-(4-Fluoro-2-methoxyphenyl)-4-[1-(3-thienylacetyl)-1,2,3,4-tetrahydroquinolin-2-ylmethyl]piperazine] | 38.3
COc1cc(F)ccc1N1CCN(CC2CCc3ccccc3N2C(=O)CC(C)C)CC1 (stereo not drawn) [Example 74A, 1-(4-Fluoro-2-methoxyphenyl)-4-[1-(3-methylbutanoyl)-1,2,3,4-tetrahydroquinolin-2-ylmethyl]piperazine] | 17.6
COc1ccc(C(=O)N2c3ccccc3CCC2CN2CCN(c3nccc4ccccc34)CC2)cc1 (stereo not drawn) [Example 75A5, 1-(1-Isoquinolinyl)-4-[1-(4-methoxybenzoyl)-1,2,3,4-tetrahydroquinolin-2-ylmethyl]piperazine] | 2.6
CC(=O)N1CCC(C(=O)N2c3ccccc3CCC2CN2CCN(c3nccc4ccccc34)CC2)CC1 (stereo not drawn) [Example 75A7, 1-[1-(1-Acetyl-4-piperidinecarbonyl)-1,2,3,4-tetrahydroquinolin-2-ylmethyl]-4-(1-isoquinolinyl)piperazine] | 5.4
O=C(Cc1cccs1)N1c2ccccc2CCC1CN1CCN(c2nccc3ccccc23)CC1 (stereo not drawn) [Example 75A8, 1-(1-Isoquinolinyl)-4-[1-(2-thienyacetyl)-1,2,3,4-tetrahydroquinolin-2-ylmethyl]piperazine] | 17
O=C(Cc1ccsc1)N1c2ccccc2CCC1CN1CCN(c2nccc3ccccc23)CC1 (stereo not drawn) [Example 75A9, 1-(1-Isoquinolinyl)-4-[1-(3-thienyacetyl)-1,2,3,4-tetrahydroquinolin-2-ylmethyl]piperazine] | 16.1
O=C(C1CCC1)N1c2ccccc2CCC1CN1CCN(c2nccc3ccccc23)CC1 (stereo not drawn) [Example 75A10, 1-(1-Cyclobutanecarbonyl-1,2,3,4-tetrahydroquinolin-2-ylmethyl)-4-(1-isoquinolinyl)piperazine] | 26.4
CC(C)CC(=O)N1c2ccccc2CCC1CN1CCN(c2nccc3ccccc23)CC1 (stereo not drawn) [Example 75A, 1-(1-Isoquinolinyl)-4-[1-(3-methylbutanoyl)-1,2,3,4-tetrahydroquinolin-2-ylmethyl]piperazine] | 3.2

Further compounds by falling Ki, results first:

Ki [nM] | SMILES
38.6 | O=C(C1CCCCC1)N1c2ccccc2CCC1CN1CCC(c2cccc(Cl)c2)CC1 (stereo not drawn) [Example 72A68, 4-(3-Chlorophenyl)-1-(1-cyclohexanecarbonyl-1,2,3,4-tetrahydroquinolin-2-ylmethyl)piperidine]
34.7 | O=C(C1CCCCC1)N1c2ccccc2CCC1CN1CCN(c2cc(C(F)(F)F)nc3ccccc23)CC1 (stereo not drawn) [Example 72A89, 1-(1-Cyclohexanecarbonyl-1,2,3,4-tetrahydroquinolin-2-ylmethyl)-4-(2-trifluoromethylquinolin-4-yl)piperazine]
27.7 | CC(C)(C)NC(=O)N1c2ccccc2CCC1CN1CCN(c2nccc3ccccc23)CC1 (stereo not drawn) [Example 75A15, 1-(1-Isoquinolinyl)-4-[1-(1,1-Dimethyethylaminocarbonyl)-1,2,3,4-tetrahydroquinolin-2-ylmethyl]piperazine]
25.5 | O=C(C1CCCCC1)N1c2ccccc2CCC1CN1CCC(c2ccccc2C(F)(F)F)CC1 (stereo not drawn) [Example 72A81, 1-(1-Cyclohexanecarbonyl-1,2,3,4-tetrahydroquinolin-2-ylmethyl)-4-(2-trifluoromethylphenyl)piperidine]
18.1 | COc1cc(F)ccc1N1CCN(CC2CCc3cc(C)ccc3N2C(=O)CC2CCCCC2)CC1 (stereo not drawn) [Example 73A6, 1-(1-Cyclohexylacetyl-1,2,3,4-tetrahydroquinolin-6-methyl-2-ylmethyl)-4-(4-fluoro-2-methoxyphenyl)piperazine]
17.1 | O=C(CCCOc1ccccc1)N1c2ccccc2CCC1CN1CCN(c2nccc3ccccc23)CC1 (stereo not drawn) [Example 75A11, 1-(1-Isoquinolinyl)-4-[1-(4-phenoxybutanoyl)-1,2,3,4-tetrahydroquinolin-2-ylmethyl]piperazine]
15.7 | CN(CCOc1ccccc1Cl)CC1CCc2ccccc2N1C(=O)C1CCCCC1 (stereo not drawn) [Example 72A84, N-(1-Cyclohexanecarbonyl-1,2,3,4-tetrahydroquinolin-2-ylmethyl)-2-(2-chlorophenoxy)ethylmethylamine]
14.6 | O=C(c1ccco1)N1c2ccccc2CCC1CN1CCN(c2nccc3ccccc23)CC1 (stereo not drawn) [Example 75A4, 1-[1-(2-Furancarbonyl)-1,2,3,4-tetrahydroquinolin-2-ylmethyl]-4-(1-isoquinolinyl)piperazine]
14 | O=C(c1ccc[nH]1)N1c2ccccc2CCC1CN1CCN(c2nccc3ccccc23)CC1 (stereo not drawn) [Example 75A3, 1-(1-Isoquinolinyl)-4-[1-(2-pyrrolylcarbonyl)-1,2,3,4-tetrahydroquinolin-2-ylmethyl]piperazine]
10.1 | O=C(CC1CC1)N1c2ccccc2CCC1CN1CCN(c2nccc3ccccc23)CC1 (stereo not drawn) [Example 75A2, 1-[1-(2-Cyclopropylacetyl)-1,2,3,4-tetrahydroquinolin-2-ylmethyl]-4-(1-isoquinolinyl)piperazine]
5.4 | O=C(CC1CC1)N1c2ccccc2CCC1CN1CCN(c2cccc3c2OCCO3)CC1 (stereo not drawn) [Example 76A1, 4-[1-(2-Cyclopropylacetyl)-1,2,3,4-tetrahydroquinolin-2-ylmethyl]-1-(2,3-dihydrobenzo[1,4]dioxin-5-yl)piperazine]
5.1 | O=C(c1ccc[nH]1)N1c2ccccc2CCC1CN1CCN(c2cccc3c2OCCO3)CC1 (stereo not drawn) [Example 76A2, 1-(2,3-Dihydrobenzo[1,4]dioxin-5-yl)-4-[1-(2-pyrrolylcarbonyl)-1,2,3,4-tetrahydroquinolin-2-ylmethyl]piperazine]
5 | O=C(c1ccco1)N1c2ccccc2CCC1CN1CCN(c2cccc3c2OCCO3)CC1 (stereo not drawn) [Example 76A3, 1-(2,3-Dihydrobenzo[1,4]dioxin-5-yl)-4-[1-(2-furanecarbonyl)-1,2,3,4-tetrahydroquinolin-2-ylmethyl]piperazine]
4.3 | CN(CCOc1cccc2[nH]ccc12)CC1CCc2ccccc2N1C(=O)C1CCCCC1 (stereo not drawn) [Example 72A86, N-(1-Cyclohexanecarbonyl-1,2,3,4-tetrahydroquinolin-2-ylmethyl)-2-[4-(1H)-indolyloxy]ethylmethylamine]
4.3 | N#Cc1ccc(C(=O)N2c3ccccc3CCC2CN2CCN(c3nccc4ccccc34)CC2)cc1 (stereo not drawn) [Example 75A6, 1-[1-(4-Cyanobenzoyl)-1,2,3,4-tetrahydroquinolin-2-ylmethyl]-4-(1-isoquinolinyl)piperazine]
3.9 | O=C(C1CCCCC1)N1c2ccccc2CCC1CN1CCC(c2ccccc2Cl)CC1 (stereo not drawn) [Example 72A69, 4-(2-Chlorophenyl)-1-(1-cyclohexanecarbonyl-1,2,3,4-tetrahydroquinolin-2-ylmethyl)piperidine]
3.6 | CN(CCOc1ccccc1OCC(F)(F)F)CC1CCc2ccccc2N1C(=O)C1CCCCC1 (stereo not drawn) [Example 72A85, N-(1-Cyclohexanecarbonyl-1,2,3,4-tetrahydroquinolin-2-ylmethyl)-2-[2-(2,2,2-trifluoroethoxy)phenoxy]ethylmethylamine]
2 | COc1cc(F)ccc1N1CCN(CC2CCc3ccccc3N2C(=O)CC(C)(C)C)CC1 (stereo not drawn) [Example 74A1, 1-(3,3-Dimethylbutanoyl-1,2,3,4-tetrahydroquinolin-2-ylmethyl)-4-(4-fluoro-2-methoxyhenyl)piperazine]
2 | COc1ccc(C(=O)N2c3ccccc3CCC2CN2CCN(c3ccc(F)cc3OC)CC2)cc1 (stereo not drawn) [Example 74A5, 1-(4-Fluoro-2-methoxyphenyl)-4-[1-(4-methoxybenzoyl)-1,2,3,4-tetrahydroquinolin-2-ylmethy]piperazine]
